We go through 4 compounds from paper PMC9814232, “Structural insights into the potency and selectivity of covalent pan-FGFR inhibitors” (Communications Chemistry, 2022).

One series has as its system advanced solid tumors. To be noted: pretreated patients with advanced solid tumors, phase 1 dose-escalation; cited from earlier work.
Series [1] relates to FGFR gatekeeper mutations. To be noted: cited from earlier work.
The next series has as its target T1, FGFR4 (Homo sapiens, UniProt P22455).
T1 construct: FGFR4 (residues 445−753); 6×His (N, cleaved yes); made in house; host or cells: E. coli BL21 (DE3), co-expressed with YOPH
Description: ADP-Glo kinase inhibition assay, FGFR4. To be noted: kinase activity, 10 μM ATP, n = 3. In kind it is biochemical. Here is the method: (§1) FGFRs, SRC and HCK were prepared as previously described[31]–[33]. […] The primers were synthesized by Tsingke Biotechnolog Co., Ltd., and the sequences were listed in Supplementary Table 2. Then plasmid was transfected into E. coli BL21 (DE3) cells and co-expressed with YOPH to get the non-phosphorylated proteins. Cells were grown in LB at 37 °C and induced for 16 h with 0.5 mM IPTG at 18 °C. Cells were harvested by centrifugation for next purification. All steps of purification were performed at 4 °C. Proteins were first purified by Ni-NTA affinity chromatography, and then 6×His tag was removed by PreScission or TEV protease. […] Anion exchange chromatography (Mono Q) and size exclusion chromatography (SEC) were exploited for further purification. The purified FGFRs proteins were stored in the buffer containing 20 mM tris-HCl pH 8.0, 150 mM NaCl, and 1 mM TCEP, while SRC and HCK proteins in the buffer containing 20 mM tris-HCl pH 8.0, 150 mM NaCl, 5% (v/v) glycerol, and 1 mM TCEP. […]
(§2) The ADP-Glo^TM Kinase Assay Kit (Part No #V9101) was purchased from Promega. […] Finally, […] was measured on a multimode plate reader (Perkin-Elmer) after the addition of detection reagent for half an hour to one hour. IC50 values were determined using a three-parameter log [Inhibitor] versus response model in GraphPad Prism software.

For a further series, the target named is T2, FGFR4(V550L) (Homo sapiens, UniProt P22455, V550L).
T2 construct: FGFR4 (residues 445−753); 6×His (N, cleaved yes); made in house; host or cells: E. coli BL21 (DE3), co-expressed with YOPH
Put plainly: ADP-Glo kinase inhibition assay, FGFR4(V550L) gatekeeper mutant. In kind it is biochemical. To be noted: for IC50: kinase activity, ADP-Glo, 10 μM ATP, n = 3. (In general: ADP-Glo first removes unused ATP, then detects ADP through luciferase.)

Series [2] concerns the target T3, SRC (Gallus gallus, UniProt P00523).
T3 construct: chicken SRC (residues 251−533); 6×His (N, cleaved yes); made in house; host or cells: E. coli BL21 (DE3), co-expressed with YOPH
Description: ADP-Glo kinase inhibition assay, SRC. Format: biochemical, chicken. To be noted: for IC50: kinase activity, ADP-Glo, 10 μM ATP, n = 3. The procedure: (§3) FGFRs, SRC and HCK were prepared as previously described[31]–[33]. […] The primers were synthesized by Tsingke Biotechnolog Co., Ltd., and the sequences were listed in Supplementary Table 2. Then plasmid was transfected into E. coli BL21 (DE3) cells and co-expressed with YOPH to get the non-phosphorylated proteins. Cells were grown in LB at 37 °C and induced for 16 h with 0.5 mM IPTG at 18 °C. Cells were harvested by centrifugation for next purification. All steps of purification were performed at 4 °C. Proteins were first purified by Ni-NTA affinity chromatography, and then 6×His tag was removed by PreScission or TEV protease. […] Anion exchange chromatography (Mono Q) and size exclusion chromatography (SEC) were exploited for further purification. The purified FGFRs proteins were stored in the buffer containing 20 mM tris-HCl pH 8.0, 150 mM NaCl, and 1 mM TCEP, while SRC and HCK proteins in the buffer containing 20 mM tris-HCl pH 8.0, 150 mM NaCl, 5% (v/v) glycerol, and 1 mM TCEP. The purified proteins were concentrated to about 5–15 mg/mL and stored at −80 °C for subsequent studies.
(§4) The ADP-Glo^TM Kinase Assay Kit (Part No #V9101) was purchased from Promega. The experiments were performed according to the manufacturer’s instructions. All kinase inhibition assays were performed with optimized kinase assay buffer consisting of 40 mM Tris-HCl (pH ranging from 7.5 to 8.0), 20 mM MgCl2, 20 mM NaCl, 0.1 mg/mL BSA, 1 mM TCEP, and 4% DMSO[34]. […] Second, 5×ATP plus poly (4:1 Glu, Tyr) peptides (abcam, Part No #ab204877) were added to start the kinase reactions. The final reaction consisted of 0.04 μM kinase, 50 μM Tyr4 peptide and 10 μM ATP in kinase buffer. Then the reactions were terminated by the addition of stop buffer ADP-Glo after half an hour of incubation. […] Finally, […] was measured on a multimode plate reader (Perkin-Elmer) after the addition of detection reagent for half an hour to one hour. IC50 values were determined using a three-parameter log [Inhibitor] versus response model in GraphPad Prism software.

For the next series, the target named is T4, YES (Homo sapiens, UniProt P07947).
T4 construct: purchased Carna 08-175
Description: ADP-Glo kinase inhibition assay, YES. To be noted: for IC50: kinase activity, ADP-Glo, 10 μM ATP, n = 3. In kind it is biochemical. The procedure: as §3, §4

The target in a further series is T5, SRC(C277A) (Gallus gallus, UniProt P00523, C277A).
T5 construct: chicken SRC (residues 251−533); made in house; host or cells: E. coli BL21 (DE3), co-expressed with YOPH
Description: ADP-Glo kinase inhibition assay, SRC(C277A). To be noted: for IC50: kinase activity, ADP-Glo, 10 μM ATP, n = 3. Format: biochemical, chicken. The procedure:
as §3, §4

For the next series, the target named is T6, HCK (Homo sapiens, UniProt P08631).
T6 construct: human HCK (residues 247−526); 6×His (N, cleaved yes); made in house; host or cells: E. coli BL21 (DE3), co-expressed with YOPH
Description: ADP-Glo kinase inhibition assay, HCK. In kind it is biochemical. Conditions: kinase activity, 10 μM ATP, n = 3. Here is the method:
as §1, §2

The next series deals with T7, FGFR1 (Homo sapiens, UniProt P11362).
T7 construct: human FGFR1 (residues 456−765); 6×His (N, cleaved yes); made in house; host or cells: E. coli BL21 (DE3), co-expressed with YOPH
Put plainly: ADP-Glo kinase inhibition assay, FGFR1. Format: biochemical. To be noted: kinase activity, 10 μM ATP, n = 3.

A further series deals with T8, FGFR1(V561M) (Homo sapiens, UniProt P11362, V561M).
T8 construct: human FGFR1 (residues 456−765); 6×His (N, cleaved yes); made in house; host or cells: E. coli BL21 (DE3), co-expressed with YOPH
Put plainly: ADP-Glo kinase inhibition assay, FGFR1(V561M) gatekeeper mutant. In kind it is biochemical. To be noted: kinase activity, 10 μM ATP, n = 3.

Another series has as its target T9, FGFR2 (Homo sapiens, UniProt P21802).
T9 construct: FGFR2 (residues 453−770); 6×His (N, cleaved yes); made in house; host or cells: E. coli BL21 (DE3), co-expressed with YOPH
Description: ADP-Glo kinase inhibition assay, FGFR2. Conditions: kinase activity, 10 μM ATP, n = 3. In kind it is biochemical.

In another series the target is T10, FGFR2(V564F) (Homo sapiens, UniProt P21802, V564F).
T10 construct: FGFR2 (residues 453−770); 6×His (N, cleaved yes); made in house; host or cells: E. coli BL21 (DE3), co-expressed with YOPH
Put plainly: ADP-Glo kinase inhibition assay, FGFR2(V564F) gatekeeper mutant. Format: biochemical.

Another series addresses T11, FGFR3 (Homo sapiens, UniProt P22607).
T11 construct: FGFR3 (residues 450−758); 6×His (N, cleaved yes); made in house; host or cells: E. coli BL21 (DE3), co-expressed with YOPH
Put plainly: ADP-Glo kinase inhibition assay, FGFR3. Format: biochemical. To be noted: kinase activity, 10 μM ATP, n = 3. Here is the method: as §1, §2

The next series concerns the target T12, FGFR3(V555M) (Homo sapiens, UniProt P22607, V555M).
T12 construct: FGFR3 (residues 450−758); 6×His (N, cleaved yes); made in house; host or cells: E. coli BL21 (DE3), co-expressed with YOPH
Put plainly: ADP-Glo kinase inhibition assay, FGFR3(V555M) gatekeeper mutant. Format: biochemical.

The target in series [3] is T3, SRC. Put plainly: MALDI-TOF MS covalent adduct formation, SRC. In kind it is binding, chicken. To be noted: protein:inhibitor 1:2, overnight, 4 °C. The procedure: as §3
[4] abbreviates: kinase activity, ADP-Glo, 10 μM ATP, n = 3.

T4 sequence (P07947 whole entry): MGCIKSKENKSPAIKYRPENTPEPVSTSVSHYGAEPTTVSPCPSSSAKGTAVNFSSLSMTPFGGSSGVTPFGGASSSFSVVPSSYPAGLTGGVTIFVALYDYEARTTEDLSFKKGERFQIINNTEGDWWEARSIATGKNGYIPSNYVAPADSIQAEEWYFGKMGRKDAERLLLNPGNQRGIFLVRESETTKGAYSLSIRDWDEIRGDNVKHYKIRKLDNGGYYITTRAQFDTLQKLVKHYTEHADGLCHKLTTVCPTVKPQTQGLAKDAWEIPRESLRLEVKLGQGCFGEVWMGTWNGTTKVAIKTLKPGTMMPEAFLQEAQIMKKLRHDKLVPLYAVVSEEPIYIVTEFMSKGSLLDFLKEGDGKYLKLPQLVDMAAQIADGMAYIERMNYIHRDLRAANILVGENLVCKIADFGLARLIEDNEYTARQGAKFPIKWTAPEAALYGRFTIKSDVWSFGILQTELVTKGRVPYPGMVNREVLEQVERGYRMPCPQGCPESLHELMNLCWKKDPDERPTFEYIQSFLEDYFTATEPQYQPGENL
T2 sequence (P22455 445-753 V550L): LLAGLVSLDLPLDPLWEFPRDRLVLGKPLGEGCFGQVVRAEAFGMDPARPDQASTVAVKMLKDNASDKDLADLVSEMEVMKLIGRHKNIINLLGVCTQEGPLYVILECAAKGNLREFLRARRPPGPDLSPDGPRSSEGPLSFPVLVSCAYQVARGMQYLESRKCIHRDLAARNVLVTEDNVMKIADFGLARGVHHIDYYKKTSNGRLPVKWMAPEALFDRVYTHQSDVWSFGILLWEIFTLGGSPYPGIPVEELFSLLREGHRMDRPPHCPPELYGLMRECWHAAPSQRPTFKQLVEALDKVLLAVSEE
T12 sequence (P22607 450-758 V555M): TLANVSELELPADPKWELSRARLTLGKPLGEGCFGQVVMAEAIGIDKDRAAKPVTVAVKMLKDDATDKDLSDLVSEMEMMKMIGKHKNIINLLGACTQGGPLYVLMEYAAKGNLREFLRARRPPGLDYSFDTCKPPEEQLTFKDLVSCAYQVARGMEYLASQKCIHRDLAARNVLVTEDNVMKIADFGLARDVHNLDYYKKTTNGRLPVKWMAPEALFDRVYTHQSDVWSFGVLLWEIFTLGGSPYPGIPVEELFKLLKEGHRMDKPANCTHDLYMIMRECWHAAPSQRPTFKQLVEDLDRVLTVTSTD
T6 sequence (P08631 247-526): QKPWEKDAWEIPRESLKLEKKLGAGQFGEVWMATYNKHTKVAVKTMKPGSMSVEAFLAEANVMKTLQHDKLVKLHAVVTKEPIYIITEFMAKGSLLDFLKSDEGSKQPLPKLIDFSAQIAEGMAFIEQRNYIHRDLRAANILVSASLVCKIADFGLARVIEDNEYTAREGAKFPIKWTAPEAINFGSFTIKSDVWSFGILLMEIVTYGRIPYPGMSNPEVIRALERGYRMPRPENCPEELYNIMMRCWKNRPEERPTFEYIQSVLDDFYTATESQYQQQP
T1 sequence (P22455 445-753): as the sequence (P22455 445-753 V550L) above, with L106V counted along it
T10 sequence (P21802 453-770 V564F): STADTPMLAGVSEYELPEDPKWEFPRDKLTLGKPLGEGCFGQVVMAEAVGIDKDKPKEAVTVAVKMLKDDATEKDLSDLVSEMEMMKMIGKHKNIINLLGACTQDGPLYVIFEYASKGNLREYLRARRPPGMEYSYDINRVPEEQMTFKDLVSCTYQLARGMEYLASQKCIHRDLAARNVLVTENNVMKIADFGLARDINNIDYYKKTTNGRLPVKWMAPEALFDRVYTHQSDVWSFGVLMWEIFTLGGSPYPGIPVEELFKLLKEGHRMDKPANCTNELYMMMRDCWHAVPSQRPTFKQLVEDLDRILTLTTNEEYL
T8 sequence (P11362 456-765 V561M): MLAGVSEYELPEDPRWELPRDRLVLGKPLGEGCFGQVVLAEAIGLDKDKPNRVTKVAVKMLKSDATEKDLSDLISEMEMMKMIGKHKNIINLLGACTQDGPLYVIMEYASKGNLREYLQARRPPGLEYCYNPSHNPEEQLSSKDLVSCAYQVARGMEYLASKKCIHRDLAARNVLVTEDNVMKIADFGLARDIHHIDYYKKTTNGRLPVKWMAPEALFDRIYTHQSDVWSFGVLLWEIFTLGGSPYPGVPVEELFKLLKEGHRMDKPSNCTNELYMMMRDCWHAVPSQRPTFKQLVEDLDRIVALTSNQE
T11 sequence (P22607 450-758): as the sequence (P22607 450-758 V555M) above, with M106V counted along it
T7 sequence (P11362 456-765): as the sequence (P11362 456-765 V561M) above, with M106V counted along it
T9 sequence (P21802 453-770): as the sequence (P21802 453-770 V564F) above, with F112V counted along it

On to `C=CC(=O)N1CC[C@H](n2nc(C#Cc3cc(OC)cc(OC)c3)c3c(N)ncnc32)C1` [TAS-120], for which the “most common adverse events” value in the series with advanced solid tumors was “hyperphosphatemia, diarrhea and constipation”.

In the case of `CCN1CCN(c2ccc(Nc3cc(N(C)C(=O)Nc4c(Cl)c(OC)cc(OC)c4Cl)ncn3)cc2)CC1` [BGJ398, 3-(2,6-dichloro-3,5-dimethoxy-phenyl)-1-{6-[4-(4-ethyl-piperazin-1-yl)-phenylamino]-pyrimidin-4-yl}-1-methyl-urea], in series [1], the “potency against FGFR gatekeeper mutations (in words)” value is given as “little potency”.

Usually IC50 stands for the midpoint of a concentration-inhibition curve. Read a high IC50 as weaker potency in that assay. Consider `C=CC(=O)N1CCN(CCCn2c(=O)c(-c3c(Cl)c(OC)cc(OC)c3Cl)cc3cnc(NC)nc32)CC1` [PRN1371, 8-(3-(4-Acryloylpiperazin-1-yl)propyl)-6-(2,6-dichloro-3,5-dimethoxyphenyl)-2-(methylamino)pyrido[2,3-d]pyrimidin-7(8H)-one], for which the IC50 at FGFR4 is 31.3 nM; at FGFR4(V550L), over 1000 nM; against SRC [2], over 5000 nM; on YES it was over 5000 nM; on SRC(C277A), over 5000 nM; against HCK it was over 5000 nM. For the same compound, the “effect on FGFR4(V550L) (in words)” value at FGFR4(V550L) (kinase assay) is given as “little effect”. Moreover, the “potency against SRC (in words)” value on SRC [2] (kinase assay) is recorded as “negligible potency”. Besides, the “potency against YES (in words)” value on YES (kinase assay) is “negligible potency”. The “potency against FGFR gatekeeper mutations (in words)” value in [1] was “little potency”.

For `C=CC(=O)Nc1ccc(CN2C(=O)N(c3cc(OC)cc(OC)c3)Cc3cnc(Nc4ccc(N5CCN(C)CC5)cc4)nc32)cc1` [FIIN-2], the half-inhibitory concentration (IC50) on FGFR1 is 6.4 nM; on FGFR1(V561M) it was 216 nM; at FGFR2, 2.9 nM; on FGFR2(V564F) (setting [4]) it was 276 nM; at FGFR3, 6.7 nM; against FGFR3(V555M) (setting [4]), 97 nM. Further, the IC50 against FGFR4 was 21.1 nM; against FGFR4(V550L), 255 nM; against SRC [2], 330 nM; at YES, 365 nM; at SRC(C277A), over 5000 nM; against HCK, over 5000 nM. For the same compound, on FGFR2(V564F) (IC50 mutant relative to wild-type FGFR2), the “fold decrease in potency, FGFR2(V564F) vs wild type” value was 95 fold. In addition, the “fold reduction of potency, FGFR3(V555M) vs wild type” value on FGFR3(V555M) (IC50 mutant relative to wild-type FGFR3) was 15 fold. The “fold decrease in potency, FGFR4(V550L) vs wild type” value on FGFR4(V550L) (IC50 mutant relative to wild-type FGFR4) is on record as 12 fold. Further, the “potency against SRC(C277A) (in words)” value on SRC(C277A) (kinase assay) was “lost their potency”. Also, the “mass shift of SRC protein (covalent adduct)” value on SRC [3] is given as “mass shifts were observed”.
